{"source": "ChEMBL document CHEMBL3091444", "about": "“5-Chlorothiophene-2-carboxylic acid [(S)-2-[2-methyl-3-(2-oxopyrrolidin-1-yl)benzenesulfonylamino]-3-(4-methylpiperazin-1-yl)-3-oxopropyl]amide (SAR107375), a selective and potent orally active dual thrombin and factor Xa inhibitor” (J Med Chem, 2013)", "key": {"[1]": {"assay": "Metabolic stability in Sprague-Dawley rat liver microsomes at 5 uM after 20 mins", "assay_type": "ADME", "settings": "read-out: Stability; call rule not given here"}, "[2]": {"assay": "Metabolic stability in human liver microsomes at 5 uM after 20 mins", "assay_type": "ADME", "settings": "read-out: Stability"}, "[3]": {"assay": "Metabolic stability in Swiss CD1 mouse liver microsomes at 5 uM after 20 mins", "assay_type": "ADME, Microsome", "settings": "read-out: Stability"}, "[4]": {"assay": "Permeability of the compound across human Caco2 cells", "assay_type": "ADME, cell-based", "settings": "Caco-2, read-out: permeability"}, "[5]": {"assay": "Half life in Sprague-Dawley rat at 3 mg/kg, iv", "assay_type": "ADME, organism-based", "design": "dose 3 mg/kg, route intravenous", "settings": "in vivo"}, "[6]": {"assay": "Tmax in dog at 10 mg/kg, po", "assay_type": "ADME, organism-based, Canis lupus familiaris", "design": "dose 10 mg/kg, route oral", "settings": "in vivo"}, "[7]": {"assay": "Half life in Sprague-Dawley rat at 10 mg/kg, po", "assay_type": "ADME, organism-based", "design": "dose 10 mg/kg, route oral", "settings": "in vivo"}, "[8]": {"assay": "Oral bioavailability in dog at 10 mg/kg", "assay_type": "ADME, organism-based, Canis lupus familiaris", "settings": "in vivo"}, "[9]": {"assay": "AUC in Sprague-Dawley rat at 3 mg/kg, iv", "assay_type": "ADME, organism-based", "design": "dose 3 mg/kg, route intravenous", "settings": "plasma"}, "[10]": {"assay": "Clearance in Sprague-Dawley rat at 3 mg/kg, iv", "assay_type": "ADME, organism-based", "design": "dose 3 mg/kg, route intravenous", "settings": "in vivo"}, "[11]": {"assay": "Cmax in Sprague-Dawley rat at 10 mg/kg, po", "assay_type": "ADME, organism-based", "design": "dose 10 mg/kg, route oral", "settings": "in vivo"}, "[12]": {"assay": "Oral bioavailability in Sprague-Dawley rat at 10 mg/kg", "assay_type": "ADME, organism-based", "settings": "in vivo"}, "[13]": {"assay": "Half life in dog at 3 mg/kg, iv", "assay_type": "ADME, organism-based, Canis lupus familiaris", "design": "dose 3 mg/kg, route intravenous", "settings": "in vivo"}, "[14]": {"assay": "Tmax in Sprague-Dawley rat at 10 mg/kg, po", "assay_type": "ADME, organism-based", "design": "dose 10 mg/kg, route oral", "settings": "in vivo"}, "[15]": {"assay": "AUC in dog at 3 mg/kg, iv", "assay_type": "ADME, organism-based, Canis lupus familiaris", "design": "dose 3 mg/kg, route intravenous", "settings": "plasma"}, "[16]": {"assay": "Cmax in dog at 10 mg/kg, po", "assay_type": "ADME, organism-based, Canis lupus familiaris", "design": "dose 10 mg/kg, route oral", "settings": "in vivo"}, "[17]": {"assay": "Cmax in Sprague-Dawley rat at 3 mg/kg, iv", "assay_type": "ADME, organism-based", "design": "dose 3 mg/kg, route intravenous", "settings": "in vivo"}, "[18]": {"assay": "Volume of distribution at steady state in dog at 3 mg/kg, iv", "assay_type": "ADME, organism-based, Canis lupus familiaris", "design": "dose 3 mg/kg, route intravenous", "settings": "in vivo, read-out: Vdss"}, "[19]": {"assay": "Clearance in dog at 3 mg/kg, iv", "assay_type": "ADME, organism-based, Canis lupus familiaris", "design": "dose 3 mg/kg, route intravenous", "settings": "in vivo"}, "[20]": {"assay": "Half life in dog at 10 mg/kg, po", "assay_type": "ADME, organism-based, Canis lupus familiaris", "design": "dose 10 mg/kg, route oral", "settings": "in vivo"}, "[21]": {"assay": "Cmax in dog at 3 mg/kg, iv", "assay_type": "ADME, organism-based, Canis lupus familiaris", "design": "dose 3 mg/kg, route intravenous", "settings": "in vivo"}, "[22]": {"assay": "AUC in dog at 10 mg/kg, po", "assay_type": "ADME, organism-based, Canis lupus familiaris", "design": "dose 10 mg/kg, route oral", "settings": "plasma"}, "[23]": {"assay": "AUC in Sprague-Dawley rat at 10 mg/kg, po", "assay_type": "ADME, organism-based", "design": "dose 10 mg/kg, route oral", "settings": "plasma"}, "[24]": {"assay": "Volume of distribution at steady state in Sprague-Dawley rat at 3 mg/kg, iv", "assay_type": "ADME, organism-based", "design": "dose 3 mg/kg, route intravenous", "settings": "in vivo, read-out: Vdss"}, "Liver microsome": {"tested_on": "Liver microsome", "assay": "Drug metabolism in human liver microsomes assessed as oxidation", "assay_type": "ADME"}}, "data": [{"compound": "Cc1c(N2CCOCC2=O)cccc1S(=O)(=O)N[C@@H](CNC(=O)c1ccc(Cl)s1)C(=O)N1CCN(C)CC1", "values": [{"measurement": "remaining at 20 min, 5 µM", "setting": "[1]", "value": 0, "unit": "%"}, {"measurement": "remaining at 20 min, 5 µM", "setting": "[2]", "value": 52, "unit": "%"}, {"measurement": "remaining at 20 min, 5 µM", "setting": "[3]", "value": 26, "unit": "%"}]}, {"compound": "Cc1c(N2CCOCC2=O)cccc1S(=O)(=O)N[C@@H](CNC(=O)c1ccc(Cl)s1)C(=O)N1CCOC[C@@H]1C", "values": [{"measurement": "remaining at 20 min, 5 µM", "setting": "[1]", "value": 58, "unit": "%"}, {"measurement": "remaining at 20 min, 5 µM", "setting": "[2]", "value": 74, "unit": "%"}, {"measurement": "remaining at 20 min, 5 µM", "setting": "[3]", "value": 91, "unit": "%"}]}, {"compound": "CCc1c(N2CCOCC2=O)cccc1S(=O)(=O)N[C@@H](CNC(=O)c1ccc(Cl)s1)C(=O)N1CCC(OC)CC1", "values": [{"measurement": "remaining at 20 min, 5 µM", "setting": "[1]", "value": 99, "unit": "%"}, {"measurement": "remaining at 20 min, 5 µM", "setting": "[2]", "value": 99, "unit": "%"}, {"measurement": "remaining at 20 min, 5 µM", "setting": "[3]", "value": 98, "unit": "%"}]}, {"compound": "CCc1c(N2CCOCC2=O)cccc1S(=O)(=O)N[C@@H](CNC(=O)c1ccc(Cl)s1)C(=O)N1CCC(O)CC1", "values": [{"measurement": "remaining at 20 min, 5 µM", "setting": "[1]", "value": 51, "unit": "%"}, {"measurement": "remaining at 20 min, 5 µM", "setting": "[2]", "value": 80, "unit": "%"}, {"measurement": "remaining at 20 min, 5 µM", "setting": "[3]", "value": 68, "unit": "%"}]}, {"compound": "O=C(NC[C@H](NS(=O)(=O)c1cccc(N2CCOCC2=O)c1Cl)C(=O)N1CCC(O)CC1)c1ccc(Cl)s1", "values": [{"measurement": "remaining at 20 min, 5 µM", "setting": "[1]", "value": 58, "unit": "%"}, {"measurement": "remaining at 20 min, 5 µM", "setting": "[2]", "value": 38, "unit": "%"}, {"measurement": "remaining at 20 min, 5 µM", "setting": "[3]", "value": 18, "unit": "%"}]}, {"compound": "CN1CCN(C(=O)[C@H](CNC(=O)c2ccc(Cl)s2)NS(=O)(=O)c2cccc(N3CCOCC3=O)c2Cl)CC1", "values": [{"measurement": "remaining at 20 min, 5 µM", "setting": "[1]", "value": 63, "unit": "%"}, {"measurement": "remaining at 20 min, 5 µM", "setting": "[2]", "value": 72, "unit": "%"}, {"measurement": "remaining at 20 min, 5 µM", "setting": "[3]", "value": 69, "unit": "%"}]}, {"compound": "CN1CCN(C(=O)[C@H](CNC(=O)c2ccc(Cl)s2)NS(=O)(=O)c2cccc(N3CCCC3=O)c2Cl)CC1", "values": [{"measurement": "remaining at 20 min, 5 µM", "setting": "[1]", "value": 54, "unit": "%"}, {"measurement": "remaining at 20 min, 5 µM", "setting": "[2]", "value": 59, "unit": "%"}, {"measurement": "remaining at 20 min, 5 µM", "setting": "[3]", "value": 45, "unit": "%"}]}, {"compound": "Cc1c(-c2ccccn2)cccc1S(=O)(=O)N[C@@H](CCCc1ccc(N)cn1)C(=O)N1CCC(=C(F)F)CC1", "values": [{"measurement": "Papp", "setting": "[4]", "value": 9.6, "unit": "×10⁻⁶ cm/s"}]}, {"compound": "Cc1c(N2CCCC2=O)cccc1S(=O)(=O)N[C@@H](CNC(=O)c1ccc(Cl)s1)C(=O)N1CCN(C)CC1.Cl", "values": [{"measurement": "half-life", "setting": "[5]", "value": 6.6, "unit": "h"}, {"measurement": "Tmax", "setting": "[6]", "value": 0.5, "unit": "h"}, {"measurement": "half-life", "setting": "[7]", "value": 6.2, "unit": "h"}, {"measurement": "bioavailability", "setting": "[8]", "value": 47, "unit": "%"}, {"measurement": "AUC", "setting": "[9]", "value": 510, "unit": "ng·h/mL"}, {"measurement": "clearance", "setting": "[10]", "value": 96.7, "unit": "mL/min/kg"}, {"measurement": "Cmax", "setting": "[11]", "value": 154, "unit": "ng/mL"}, {"measurement": "remaining at 20 min, 5 µM", "setting": "[1]", "value": 25, "unit": "%"}, {"measurement": "bioavailability", "setting": "[12]", "value": 21, "unit": "%"}, {"measurement": "remaining at 20 min, 5 µM", "setting": "[2]", "value": 34, "unit": "%"}, {"measurement": "half-life", "setting": "[13]", "value": 1.1, "unit": "h"}, {"measurement": "Tmax", "setting": "[14]", "value": 0.25, "unit": "h"}, {"measurement": "AUC", "setting": "[15]", "value": 1800, "unit": "ng·h/mL"}, {"measurement": "Cmax", "setting": "[16]", "value": 1530, "unit": "ng/mL"}, {"measurement": "remaining at 20 min, 5 µM", "setting": "[3]", "value": 25, "unit": "%"}, {"measurement": "Cmax", "setting": "[17]", "value": 1300, "unit": "ng/mL"}, {"measurement": "Vd", "setting": "[18]", "value": 1.5, "unit": "L/kg"}, {"measurement": "clearance", "setting": "[19]", "value": 28.3, "unit": "mL/min/kg"}, {"measurement": "half-life", "setting": "[20]", "value": 2.4, "unit": "h"}, {"measurement": "Cmax", "setting": "[21]", "value": 3500, "unit": "ng/mL"}, {"measurement": "AUC", "setting": "[22]", "value": 2600, "unit": "ng·h/mL"}, {"measurement": "AUC", "setting": "[23]", "value": 360, "unit": "ng·h/mL"}, {"measurement": "Vd", "setting": "[24]", "value": 4.6, "unit": "L/kg"}]}, {"compound": "CCc1c(-c2ccccn2)cccc1S(=O)(=O)N[C@@H](CNC(=O)c1ccc(Cl)s1)C(=O)N1CCOC[C@@H]1C", "values": [{"measurement": "Drug metabolism", "setting": "Liver microsome", "value": "Active"}, {"measurement": "remaining at 20 min, 5 µM", "setting": "[1]", "value": 65, "unit": "%"}, {"measurement": "remaining at 20 min, 5 µM", "setting": "[2]", "value": 99, "unit": "%"}, {"measurement": "remaining at 20 min, 5 µM", "setting": "[3]", "value": 99, "unit": "%"}]}, {"compound": "CCc1c(N2CCOCC2=O)cccc1S(=O)(=O)N[C@@H](CNC(=O)c1ccc(Cl)s1)C(=O)N1CCOC[C@@H]1C", "values": [{"measurement": "remaining at 20 min, 5 µM", "setting": "[1]", "value": 99, "unit": "%"}, {"measurement": "remaining at 20 min, 5 µM", "setting": "[2]", "value": 99, "unit": "%"}, {"measurement": "remaining at 20 min, 5 µM", "setting": "[3]", "value": 99, "unit": "%"}]}]}
